Reference: PubChem BioAssay AID2060907 (Molecular Pharmacology Branch, DTP, NCI, 2025)

Test system: 388556-164-R-J1-PDC complex spheroid viability
Experiment: Anticancer human tumor 388556-164-R-J1-PDC patient-derived colon adenocarcinoma cell line growth inhibition [RAS]
Settings: for IC50: curve of first compound; for viability, T/C: stronger effect = lower value
Method in brief: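 Tumour cells grown as complex spheroids with HUVEC endothelial cells and mesenchymal stem cells, treated with RAS pathway inhibitor combinations. Each agent spans half-log steps from near clinical Cmax, or 10 microM where Cmax is unknown.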
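Note: spheroids exposed to compound for 7 days before readout.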
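Throughout, for viability, T/C: 100% = DMSO vehicle control luminescence.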

IC50 (second compound 0.00316 µM): 2.82 µM | IC50 (second compound 0.01 µM): 3.77 µM | IC50 (second compound 0.0316 µM): 6.52 µM | IC50 (second compound 0.1 µM): 3.06 µM | IC50 (second compound 0.316 µM): 3.34 µM | IC50 (second compound 1 µM): 1.52 µM
Compound: Cc1nc(N2CCC3(CC2)COC(C)C3N)c(CO)nc1Sc1ccnc(N)c1Cl (configuration not stated) + C=CC(=O)N1CCN(c2nc(OCC3CCCN3C)nc3c(F)c(-c4nc(N)cc(C)c4C(F)(F)F)c(Cl)cc23)C(C)C1
viability, T/C (second compound 0.00316 µM, first compound 0.0316 µM): 88.3% | viability, T/C (second compound 0.00316 µM, first compound 0.1 µM): 83.7% | viability, T/C (second compound 0.00316 µM, first compound 0.316 µM): 72.8% | viability, T/C (second compound 0.00316 µM, first compound 1 µM): 58.3% | viability, T/C (second compound 0.00316 µM, first compound 3.16 µM): 49.2% | viability, T/C (second compound 0.00316 µM, first compound 10 µM): 45.3% | viability, T/C (second compound 0.01 µM, first compound 0.0316 µM): 94.7% | viability, T/C (second compound 0.01 µM, first compound 0.1 µM): 82.4% | viability, T/C (second compound 0.01 µM, first compound 0.316 µM): 75.7% | viability, T/C (second compound 0.01 µM, first compound 1 µM): 61.7% | viability, T/C (second compound 0.01 µM, first compound 3.16 µM): 49.7% | viability, T/C (second compound 0.01 µM, first compound 10 µM): 43.7% | viability, T/C (second compound 0.0316 µM, first compound 0.0316 µM): 86.1% | viability, T/C (second compound 0.0316 µM, first compound 0.1 µM): 79.9% | viability, T/C (second compound 0.0316 µM, first compound 0.316 µM): 73.3% | viability, T/C (second compound 0.0316 µM, first compound 1 µM): 63.3% | viability, T/C (second compound 0.0316 µM, first compound 3.16 µM): 55.3% | viability, T/C (second compound 0.0316 µM, first compound 10 µM): 47% | viability, T/C (second compound 0.1 µM, first compound 0.0316 µM): 95.5% | viability, T/C (second compound 0.1 µM, first compound 0.1 µM): 83.5% | viability, T/C (second compound 0.1 µM, first compound 0.316 µM): 70.5% | viability, T/C (second compound 0.1 µM, first compound 1 µM): 60.9% | viability, T/C (second compound 0.1 µM, first compound 3.16 µM): 49.6% | viability, T/C (second compound 0.1 µM, first compound 10 µM): 40.6% | viability, T/C (second compound 0.316 µM, first compound 0.0316 µM): 97.7% | viability, T/C (second compound 0.316 µM, first compound 0.1 µM): 78% | viability, T/C (second compound 0.316 µM, first compound 0.316 µM): 70.9% | viability, T/C (second compound 0.316 µM, first compound 1 µM): 63.8% | viability, T/C (second compound 0.316 µM, first compound 3.16 µM): 54.1% | viability, T/C (second compound 0.316 µM, first compound 10 µM): 36.9% | viability, T/C (second compound 1 µM, first compound 0.0316 µM): 91.2% | viability, T/C (second compound 1 µM, first compound 0.1 µM): 92.5% | viability, T/C (second compound 1 µM, first compound 0.316 µM): 68.5% | viability, T/C (second compound 1 µM, first compound 1 µM): 56.7% | viability, T/C (second compound 1 µM, first compound 3.16 µM): 42.3% | viability, T/C (second compound 1 µM, first compound 10 µM): 39.8%
